Measured values taken from article PMC6828813, “Biochemical characterisation of four rhamnosidases from thermophilic bacteria of the genera Thermotoga, Caldicellulosiruptor and Thermoclostridium” (Scientific Reports, 2019).
Values belong to the molecule of their own block, whether it stands above or below them.

Assays:
Cb_Ram106B [1] = biological target: T1, Cb_Ram106B (Caldicellulosiruptor bescii, UniProt B9MP87); experiment: pNP release, absorbance at […] nm, Hill fit; assay type: biochemical; settings: Kprime = Khalf^h, Hill coefficient h = 1.64 ± 0.20; 1 mM CoCl2, 100 mM MOPS pH 7 (RT), 70 °C
T1 construct: gene Athe_2581
T1 sequence (B9MP87 entry or part of it): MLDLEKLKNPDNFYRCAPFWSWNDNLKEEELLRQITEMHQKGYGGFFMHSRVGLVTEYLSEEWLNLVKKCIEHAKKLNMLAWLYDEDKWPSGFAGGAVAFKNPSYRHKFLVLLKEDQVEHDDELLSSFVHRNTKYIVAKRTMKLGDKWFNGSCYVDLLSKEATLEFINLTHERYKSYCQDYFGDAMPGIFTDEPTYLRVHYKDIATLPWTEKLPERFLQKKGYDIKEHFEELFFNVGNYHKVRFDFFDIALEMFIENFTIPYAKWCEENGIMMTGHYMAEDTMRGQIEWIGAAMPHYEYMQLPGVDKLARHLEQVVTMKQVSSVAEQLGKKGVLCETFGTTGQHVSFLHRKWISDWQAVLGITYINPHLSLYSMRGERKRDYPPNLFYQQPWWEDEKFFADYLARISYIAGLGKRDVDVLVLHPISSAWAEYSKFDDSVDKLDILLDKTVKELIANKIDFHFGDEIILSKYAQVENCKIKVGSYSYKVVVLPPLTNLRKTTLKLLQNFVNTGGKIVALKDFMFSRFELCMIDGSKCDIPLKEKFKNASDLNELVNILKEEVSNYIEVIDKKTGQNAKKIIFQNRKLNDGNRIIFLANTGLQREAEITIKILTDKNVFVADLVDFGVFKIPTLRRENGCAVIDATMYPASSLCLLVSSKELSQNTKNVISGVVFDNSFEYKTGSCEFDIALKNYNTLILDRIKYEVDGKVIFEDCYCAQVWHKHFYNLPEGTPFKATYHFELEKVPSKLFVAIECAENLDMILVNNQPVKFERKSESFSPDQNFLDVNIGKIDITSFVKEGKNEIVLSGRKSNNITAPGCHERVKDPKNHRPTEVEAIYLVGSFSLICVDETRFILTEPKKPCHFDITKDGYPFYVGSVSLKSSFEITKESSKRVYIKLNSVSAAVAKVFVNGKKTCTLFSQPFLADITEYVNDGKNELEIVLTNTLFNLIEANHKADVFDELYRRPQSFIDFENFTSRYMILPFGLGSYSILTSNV

Ts_Ram106B [2] = biological target: T2, Ts_Ram106B (Thermoclostridium stercorarium, UniProt L7VK28); experiment: product inhibition of pNPR hydrolysis, pNP absorbance at […] nm; assay type: biochemical; settings: read-out: IC50 (at Km or Kprime)
T2 construct: gene Cst_c00400

Tn_Ram106B [3] = biological target: T3, Tn_Ram106B (Thermotoga neapolitana, UniProt B9K9N8); experiment: as above; assay type: biochemical; settings: read-out: IC50 (at Km or Kprime)
T3 construct: gene CTN_1495

Tm_Ram106B [4] = biological target: T4, Tm_Ram106B (Thermotoga maritima, UniProt Q9X0G3); experiment: as above; assay type: biochemical; settings: read-out: IC50 (at Km or Kprime)
T4 construct: gene TM_1074

Cb_Ram106B [5] = biological target: T1, Cb_Ram106B; experiment: as above; assay type: biochemical; settings: read-out: IC50 (at Km or Kprime)
Tn_Ram106B [6] = biological target: T3, Tn_Ram106B; experiment: as above; assay type: biochemical; settings: read-out: Ki^b, α^b (mM rhamnose)
Tm_Ram106B [7] = biological target: T4, Tm_Ram106B; experiment: as above; assay type: biochemical; settings: read-out: Ki^b, α^b (mM rhamnose)
Ts_Ram106B [8] = biological target: T2, Ts_Ram106B; experiment: as above; assay type: biochemical; settings: read-out: Ki^b, α^b (mM rhamnose)
purified protein [9] = substrate: C[C@@H]1O[C@@H](Oc2ccc([N+](=O)[O-])cc2)[C@H](O)[C@H](O)[C@H]1O; experiment: purified protein; assay type: biochemical, Thermotoga neapolitana; settings: 1 mM CoCl2, 100 mM MOPS pH 7 (RT), 80 °C
purified protein [10] = substrate: C[C@@H]1O[C@@H](Oc2ccc([N+](=O)[O-])cc2)[C@H](O)[C@H](O)[C@H]1O; experiment: purified protein; assay type: biochemical, Thermoclostridium stercorarium; settings: 1 mM CoCl2, 100 mM MOPS pH 7 (RT), 55 °C
purified protein [11] = substrate: C[C@@H]1O[C@@H](Oc2ccc([N+](=O)[O-])cc2)[C@H](O)[C@H](O)[C@H]1O; experiment: purified protein; assay type: biochemical, Thermotoga maritima; settings: 1 mM CoCl2, 100 mM MOPS pH 7 (RT), 80 °C

Km or Kprime, h^b,c (Cb_Ram106B [1]): 1290 ± 230 µM
Molecule: C[C@@H]1O[C@@H](Oc2ccc([N+](=O)[O-])cc2)[C@H](O)[C@H](O)[C@H]1O [pNPR, para-nitrophenyl-α-L-rhamnopyranoside]

IC50 (Ts_Ram106B [2]): 8.3 mM
IC50 (Tn_Ram106B [3]): 6.5 mM
IC50 (Tm_Ram106B [4]): 4.9 mM
IC50 (Cb_Ram106B [5]): 5.5 mM
Ki (Tn_Ram106B [6]): 5.5 ± 1.01 mM
Ki (Tm_Ram106B [7]): 2.37 ± 0.13 mM
Ki (Ts_Ram106B [8]): 4.94 ± 0.75 mM
Molecule: C[C@@H]1O[C@@H](O)[C@H](O)[C@H](O)[C@H]1O [rhamnose]

B1: Tn_Ram106B (Thermotoga neapolitana DSM 4359) (protein)
chain: MNLKDLENPGVWYRPAPFWSWNDKLCEEELLRQIDEMCEKGYGGFFMHSRVGLVTEYLSDEWMALVKRCAEHARKLGMLAWLYDEDKWPSGFAGGIVPLESDEYRHRFLVLLKKEQIEPGDEILKRIERGNEELFVVKRTMKLGDPWFNGTCYVDLLSKKVTEAFIRSTHEKYRKVCGEFFGSSIPGIFTDEPTYLRVHYPEIPTLPWTDRFPEEFLKRKGYDIREHFEELFFNTKDYMKVRYDFFDVATELFIENFTIPYAKWCEENGISMTGHYMAEDTLRGQVEWIGAAMPHYEYMQIPGVDKLARHLEQVITIKQVSSVAEQLRKKWVLCETFGTTGQHVSFLHRKWIADWQAVLGITYINPHLSLYSMRGERKRDYPPNLFYQQPWWKNEKRFSDYLARLNYLMTQGKREVKVLMIHPITSAWCVYSKFDDEIDKLNESFDRTVKELVSNKIDFHFGDETILSKHGRVSGEKLVVGNCEYDIVLVPPLLNLRRSTVDLLNEFSKNGGKILVLKDGNFFPERVEGRKEKPEFLKRARVFEDLQGLIDSLRDVAAVEVIDKKTGKNAKSVIAQKRLLENGSYIIFLANTDINREVHCQLNLKEEKRHIYAIDIFDFAVVEFSEREFTMHPASSLLIWVTDEEIPSQRRSVISTGVTLKREFELEMAFSEFETEMNGFNVLPVDRVDMFEADGKVFRDEYVSKIWYEFYRLPEGTPFGVVYSFEIREKPEKLFLVVECAENLDRITVNGHEAVFKKKGCTFTEEECFLDVNFGKMDITELVQVGKNIVVLEGKKSNNITGPGCHERVKNPENHRPTEVETIYLVGKFSLVNVDETKYVIDAPKTPDHKDITRSGYPFYVGSFTLRKTFEMKKDPKRRYFLKLNSVRAASVEVFLNEKFVGSLFWEPFMVEITDNLHDGKNELKLVLTNTLFNLIEANHKADVLEETFRRPWSFIDFEHHTDRYILLPFGLENAAVLSSFSP
K0.5 (purified protein [9]): 1.47 ± 0.14 mM
kcat (purified protein [9]): 146.8 ± 6.1 s⁻¹

B2: Ts_Ram106B (Thermoclostridium stercorarium subsp. stercorarium DSM 8532) (protein)
chain: MFFKNSREEFDESLFRNPTSEYRCAPFWAWNKKLDWEDMERHIEIFKEMGMGGFHIHSRIGLNTPYLSDEFLDYVKKCNAKAKELGMLTWLYDEDKWPSGFGGGFVTKDHNFRSRYLLFSPFYHQSGYYERHIPRENRLGIDGYLSLIAEYKVVLKNGYLSSYKRIESGDNDSAEGETWYAYRVISGDLPWFNNQAYVDTLNKKAVEKFIEVTHEKYFEILGGEFSKSVPAVFTDEPQFVLKQNLPEPDSRQEVGIPYTDLFEESFRQRFGCSFLDSLPEIFWELEGGKFSRIRYWYHEHIAELFASSFADTVGRWCREHNLMLTGHMMAESTLESQTRALGEAMRSYRSFDLPGVDILANKYEYSTVKQAQSVARQFGKAGVLSELYGVTNWDFDFRGHKLQGDWQAAMGVSVRVPHLSWLGMGGESKRDYPAPVDYHSPWYKKYHIIEDHFSRVNVCMTRGVPCVNIAVIHPIESYWLLWGPDSQTKQKRLKLQQEFESIIDWLLFSNLDFDFIAESMVKELYRGSGNRHTQFGDMKYEVLIVPELITIRSETVKMLINHLENGGKVIILGNLPKIIDGDSDRKFDIECLGECVINNSKYDLLDALEPFRQIDIVNRDSSRNENYLYQLRDEAECKWLFIAPGKPVEALKLPEEKVLTVKVRGSYEVWRYDTFTGEKQKIQARGKDGWTYFEQTAYEHDSFLYRLLKTGTNDTTEKSVSSGVGRQVNKGVKYIKYLNGPWEYRLSEKNVLLLDMARYSLDNGEISEREEVLRIDDKIRTKLGYPLRTDSFPQPWLSPAEAECPHTVKLYFEIESETDVHEAELAFEGKGVTAEWNNVAVTDRADGFFIDKCFNVMKLPGIKKGVNQLVLTVPFGEKTDLEWCFITGNFGTCVKGDKVIITNPPERLFFGDVTRQGLSFYGGNITYIVNIDVPEGEMTVEIPQYRGALVEVALDNAKKGDIIFSPYRLNLGYVSQGEHTIEITLYGNRFNMFGQLHNCNRVEKYYGPNTWRTKGNAFAYEYQLREFGIIAAPLIYIE
K0.5 (purified protein [10]): 1.90 ± 0.18 mM
kcat (purified protein [10]): 14.3 ± 0.5 s⁻¹

B3: Tm_Ram106B (Thermotoga maritima MSB8) (protein)
chain: MNLKDLENPGVWYRPAPFWSWNDKLCEEELLRQIDEMYEKGYGGFFMHSRVGLVTEYLSEEWMRLVRSCAEHARKLGMLAWLYDEDKWPSGFAGGIVPLEKPEHRHKYLTLLKKDQIKPEDEILKKIERDGEEFYVVKRVMKLGDPWFNGTCYVDLLSRETTEAFLRSTHERYKKSCGDLFRVSIPGIFTDEPTYLRVHHPKETTLPWTERFPEEFLRRKGYDIRDHLEELFFNVKDYMKVRYDFFDVATSLFIENFTIPYAKWCEENGIFMTGHYMAEDTLRGQVEWIGAAMPHYEYMQIPGIDKLARHLEQVVTIKQVSSAAEQLGKKWVLCETFGTTGQHVSFLHRKWIADWQAVLGVTYINPHLSLYSMRGERKRDYPPNLFYQQPWWKNERFLSDYFARLNHIVTQGKREVKVLMIHPISSAWCVYSKFDDEIDKLNELFDTITKELVANKIDFHFGDEMILSKHGRVKEAKLRVGEYEYEVVVLPPLLNLKSSTVELLNSLAENGGKVFVLKDFRYGRFFPERVEGKKGRIEFLKKARVFETLEDLIEELKPFFSVDVLDTKTKENAKAVIAQKRVLEDGSYLLFLANTDIDREVHCHLELKEKRKHTYAIDLFNFKLVELKENEFVMFPASSVCIWVTDEEVPAEDEKVVSTGVLLEKEFDFETALNDFEVKMNSFNVLPVDRVEYFEAGGRVFRNEFVSKIWYEFYRLPDGTPFRVEYSFEVRKKPQKLFLVVECAENLDRITVNGREVRYERKSCIFNEEQNFLDVNFGKMEITDLVREGKNTVVLEGRKENNITGPGCHTRVKDPENHRPTEVETIYLVGDFSLVNVDETRYVIDAPKIPDHRDITRDGYPFYVGSFTLKKIFECKKDPGKRYFLKLNGVEAASVEVILNGKFLGVLFWRPFMIDITDALRNGKNELQLVLTNTLFNLIEANHKADVLEETFRRPKSFIDFEHHTDRYILLPFGLENVAVLSSSSR
K0.5 (purified protein [11]): 1.94 ± 0.20 mM
kcat (purified protein [11]): 217.8 ± 10.1 s⁻¹
